Results: ChEMBL document CHEMBL6092214, “Design, synthesis, and pharmacological characterization of sulfonylurea-based NLRP3 inhibitors: Towards an effective therapeutic strategy for Alzheimer's disease” (Eur J Med Chem, 2024)
Active and inactive are the calls of the source. No cut-off for these calls is given here.

What was measured:
[1] = target: T1, NACHT, LRR and PYD domains-containing protein 3 (Homo sapiens, UniProt Q96P20); experiment: Inhibition of NLRP3 inflammasome activation in PMA-differentiated human THP-1 cells assessed as reduction in LPS/MSU-induced IL-1beta secretion preincubated with LPS for 3 hrs followed by compound addition for 30 mins prior to MSU addition and measured after 4 hrs by ELISA method; type: cell-based
[2] = target: T1, NACHT, LRR and PYD domains-containing protein 3; experiment: Inhibition of NLRP3 inflammasome activation in LPS/Nigericin induced PMA-differentiated human THP-1 cells assessed as effect on ROS production by measuring red fluorescence by MitoSOX staining based immunofluorescence analysis; type: cell-based
[3] = target: T1, NACHT, LRR and PYD domains-containing protein 3; experiment: Inhibition of NLRP3 inflammasome activation in PMA-differentiated human THP-1 cells assessed as reduction in LPS/ATP-induced IL-1beta secretion at 30 nM preincubated with LPS for 3 hrs followed by compound addition for 30 mins prior to ATP addition and measured after 30 mins by ELISA method; type: cell-based; details: time 1.0 hrs
[4] = target: NACHT, LRR and PYD domains-containing protein 3 (Mus musculus) (UniProt Q8R4B8); experiment: Inhibition of NLRP3 inflammasome activation in mouse BMDM cells assessed as effect on LPS/Nigericin induced NLRP3 expression level at 10 to 40 nM by Western blot analysis; type: cell-based; details: dose 10-40 nM
[5] = Hepatotoxicity in mouse assessed as effect on ALT level at 10 mg/kg measured after 30 days; type: toxicity, organism-based; details: in vivo, 720 h, time 30 day
[6] = target: T1, NACHT, LRR and PYD domains-containing protein 3; experiment: Binding affinity to NLRP3 (unknown origin) assessed as dissociation constant by Surface Plasmon Resonance analysis
[7] = target: NACHT, LRR and PYD domains-containing protein 3 (Mus musculus) (UniProt Q8R4B8); experiment: Inhibition of NLRP3 inflammasome activation in mouse BMDM cells assessed as effect on LPS/Nigericin induced procaspase-1 expression level at 10 to 40 nM by Western blot analysis; type: cell-based; details: dose 10-40 nM
Mus musculus [8] = experiment: Anti-aging activity in […] AD mouse model assessed as reduction in beta-galactosidase level at 10 mg/kg administered via gavage daily for 30 days; type: functional, organism-based; details: time 30.0 day
[9] = target: NACHT, LRR and PYD domains-containing protein 3 (Mus musculus) (UniProt Q8R4B8); experiment: Inhibition of NLRP3 inflammasome activation in mouse BMDM cells assessed as decrease in LPS/Nigericin induced IL-1 beta level by Western blot analysis; type: cell-based; details: dose 10-40 nM
[10] = target: NACHT, LRR and PYD domains-containing protein 3 (Mus musculus) (UniProt Q8R4B8); experiment: Inhibition of NLRP3 inflammasome activation in mouse BMDM cells assessed as decrease in LPS/Nigericin induced caspase-1 level by Western blot analysis; type: cell-based; details: dose 10-40 nM
[11] = target: NACHT, LRR and PYD domains-containing protein 3 (Mus musculus) (UniProt Q8R4B8); experiment: Inhibition of NLRP3 inflammasome activation in mouse BMDM cells assessed as effect on LPS/Nigericin induced NEK7 expression level at 10 to 40 nM by Western blot analysis; type: cell-based; details: dose 10-40 nM
Mus musculus [12] = organism: Mus musculus; experiment: Neuroprotective activity against scopolamine-induced cognitive impairment in AD mouse model assessed as reduction in escape latency by Morris water maze test; type: functional, organism-based; details: dose 5-30 mg/kg
[13] = target: NACHT, LRR and PYD domains-containing protein 3 (Mus musculus) (UniProt Q8R4B8); experiment: Inhibition of NLRP3 inflammasome activation in mouse BMDM cells assessed as effect on LPS/Nigericin induced pro-IL-1beta expression level at 10 to 40 nM by Western blot analysis; type: cell-based; details: dose 10-40 nM
[14] = Hepatotoxicity in mouse assessed as effect on AST level at 10 mg/kg measured after 30 days; type: toxicity, organism-based; details: in vivo, 720 h, time 30 day
HEK293 = experiment: Cytotoxicity against HEK293 cells assessed as cell viability at 0.39 to 100 uM incubated for 24 hrs by CCK-8 method; type: toxicity, cell-based; details: human, hek293, 24 h, dose 0.39-100 µM
Mus musculus [15] = experiment: Anti-aging activity in […] AD mouse model assessed as upregulation of IGF-1 expression at 10 mg/kg administered via gavage daily for 30 days; type: functional, organism-based; details: time 30.0 day
Mus musculus [16] = experiment: Locomotor activity in mouse assessed as effect on total distance traveled at 30 mg/kg measured for 1.5 hrs by Open field test; type: functional, organism-based
[17] = target: T1, NACHT, LRR and PYD domains-containing protein 3; experiment: Inhibition of NLRP3 inflammasome activation in PMA-differentiated human THP-1 cells assessed as reduction in LPS/ATP-induced IL-1beta secretion at 3 nM preincubated with LPS for 3 hrs followed by compound addition for 30 mins prior to ATP addition and measured after 30 mins by ELISA method relative to control; type: cell-based; details: time 1.0 hrs
[18] = target: NACHT, LRR and PYD domains-containing protein 3 (Mus musculus) (UniProt Q8R4B8); experiment: Inhibition of NLRP3 inflammasome activation in mouse BMDM cells assessed as effect on LPS/Nigericin induced ASC expression level at 10 to 40 nM by Western blot analysis; type: cell-based; details: dose 10-40 nM
[19] = target: T1, NACHT, LRR and PYD domains-containing protein 3; experiment: Inhibition of NLRP3 inflammasome activation in PMA-differentiated human THP-1 cells assessed as reduction in LPS/Nigericin-induced IL-1beta secretion at 30 nM preincubated with LPS for 3 hrs followed by compound addition for 30 mins prior to nigericin addition and measured after 30 mins by ELISA method; type: cell-based; details: time 1.0 hrs
[20] = target: T1, NACHT, LRR and PYD domains-containing protein 3; experiment: Inhibition of NLRP3 inflammasome activation in PMA-differentiated human THP-1 cells assessed as reduction in LPS/Nigericin-induced IL-1beta secretion at 3 nM preincubated with LPS for 3 hrs followed by compound addition for 30 mins prior to nigericin addition and measured after 30 mins by ELISA method relative to control; type: cell-based; details: time 1.0 hrs
[21] = target: T1, NACHT, LRR and PYD domains-containing protein 3; experiment: Inhibition of NLRP3 inflammasome activation in LPS/Nigericin induced PMA-differentiated human THP-1 cells assessed as effect on mitochondrial membrane potential by Mitotracker staining based immunofluorescence analysis; type: cell-based
Mus musculus [22] = experiment: Neuroprotective activity against scopolamine-induced cognitive impairment in AD mouse model assessed as reduction in escape latency at 10 mg/kg administered daily by Morris water maze test; type: functional, organism-based

T1 sequence (Q96P20 whole entry, the tested form may be a part): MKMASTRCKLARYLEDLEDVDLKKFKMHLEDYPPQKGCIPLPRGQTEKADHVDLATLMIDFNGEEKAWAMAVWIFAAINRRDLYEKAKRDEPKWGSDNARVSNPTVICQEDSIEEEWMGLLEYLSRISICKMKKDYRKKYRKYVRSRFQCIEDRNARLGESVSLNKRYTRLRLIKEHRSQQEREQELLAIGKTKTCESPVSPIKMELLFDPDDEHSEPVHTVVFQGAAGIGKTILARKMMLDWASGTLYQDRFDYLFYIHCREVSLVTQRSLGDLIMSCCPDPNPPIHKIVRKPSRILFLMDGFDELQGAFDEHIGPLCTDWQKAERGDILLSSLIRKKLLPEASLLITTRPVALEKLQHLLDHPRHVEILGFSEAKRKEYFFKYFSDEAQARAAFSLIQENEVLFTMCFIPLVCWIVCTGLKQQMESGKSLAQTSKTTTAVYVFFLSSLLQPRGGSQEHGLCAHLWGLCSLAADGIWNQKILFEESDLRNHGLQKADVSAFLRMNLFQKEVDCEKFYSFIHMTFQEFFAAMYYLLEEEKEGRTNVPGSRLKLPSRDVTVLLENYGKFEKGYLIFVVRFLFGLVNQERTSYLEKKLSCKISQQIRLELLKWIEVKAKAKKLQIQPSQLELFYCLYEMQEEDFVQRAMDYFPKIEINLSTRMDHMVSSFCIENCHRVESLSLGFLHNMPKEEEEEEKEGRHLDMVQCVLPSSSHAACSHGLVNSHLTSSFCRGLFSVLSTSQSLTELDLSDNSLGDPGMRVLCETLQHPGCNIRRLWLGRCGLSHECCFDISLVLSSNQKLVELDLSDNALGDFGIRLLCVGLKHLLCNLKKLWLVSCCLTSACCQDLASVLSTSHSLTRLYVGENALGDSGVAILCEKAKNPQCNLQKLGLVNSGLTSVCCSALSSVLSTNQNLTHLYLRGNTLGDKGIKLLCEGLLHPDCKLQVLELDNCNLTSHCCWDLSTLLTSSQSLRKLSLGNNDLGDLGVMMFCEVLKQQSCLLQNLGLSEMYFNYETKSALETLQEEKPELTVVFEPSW
NACHT, LRR and PYD domains-containing protein 3 (Mus musculus), sequence (Q8R4B8 whole entry, the tested form may be a part): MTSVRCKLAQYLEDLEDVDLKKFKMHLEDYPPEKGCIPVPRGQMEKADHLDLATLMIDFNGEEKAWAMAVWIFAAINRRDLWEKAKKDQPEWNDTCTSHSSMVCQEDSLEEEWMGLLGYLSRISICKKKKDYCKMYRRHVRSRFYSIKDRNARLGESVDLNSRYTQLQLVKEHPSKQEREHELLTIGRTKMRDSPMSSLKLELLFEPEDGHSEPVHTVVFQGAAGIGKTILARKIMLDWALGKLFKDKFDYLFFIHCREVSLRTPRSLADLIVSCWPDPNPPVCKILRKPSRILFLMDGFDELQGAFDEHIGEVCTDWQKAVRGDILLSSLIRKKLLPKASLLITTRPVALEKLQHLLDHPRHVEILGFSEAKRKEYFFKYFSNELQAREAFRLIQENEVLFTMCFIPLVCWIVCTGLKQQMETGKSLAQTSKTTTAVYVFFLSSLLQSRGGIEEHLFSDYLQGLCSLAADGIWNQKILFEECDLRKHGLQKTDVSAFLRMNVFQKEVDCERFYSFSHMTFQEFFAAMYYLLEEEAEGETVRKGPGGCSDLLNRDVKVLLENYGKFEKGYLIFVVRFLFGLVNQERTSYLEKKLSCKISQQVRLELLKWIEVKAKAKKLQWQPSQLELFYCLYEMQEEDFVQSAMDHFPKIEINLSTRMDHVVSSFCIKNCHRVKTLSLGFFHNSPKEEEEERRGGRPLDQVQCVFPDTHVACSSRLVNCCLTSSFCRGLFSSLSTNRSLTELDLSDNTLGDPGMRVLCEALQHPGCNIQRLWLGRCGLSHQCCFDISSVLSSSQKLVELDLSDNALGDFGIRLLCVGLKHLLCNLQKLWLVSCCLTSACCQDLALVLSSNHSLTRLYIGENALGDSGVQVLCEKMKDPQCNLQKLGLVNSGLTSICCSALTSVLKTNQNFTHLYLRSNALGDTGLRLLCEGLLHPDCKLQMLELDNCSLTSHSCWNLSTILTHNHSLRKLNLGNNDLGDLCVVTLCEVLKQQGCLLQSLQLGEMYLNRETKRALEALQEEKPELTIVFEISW

O=C(Nc1c(-c2ccc([N+](=O)[O-])cc2)ccc2c1CCC2)NS(=O)(=O)c1cnn2c1OCCC2
IC50 [1]: 674 nM

COc1cncc(-c2ccc3c(c2NC(=O)NS(=O)(=O)c2cc(C(C)(C)O)co2)CCC3)c1
IC50 [1]: 32 nM

O=C(Nc1c(-c2ccc([N+](=O)[O-])cc2)ccc2c1CCC2)NS(=O)(=O)c1ccc2ccccc2c1
IC50 [1]: > 1000 nM

O=C(Nc1c(-c2ccc([N+](=O)[O-])cc2)ccc2c1CCC2)NS(=O)(=O)CC1CCCCC1
IC50 [1]: > 1000 nM

CC(C)(O)c1csc(S(=O)(=O)NC(=O)Nc2c(-c3ccc([N+](=O)[O-])cc3)ccc3c2CCC3)c1
inhibition [2]: inactive | inhibition [3]: Active; Compound Nearly Abolished Il-1 Beta Secretion | inhibition [4]: inactive | Activity [5]: Non-toxic | Kd [6]: 19.3 nM | inhibition [7]: inactive | Activity (Mus musculus [8]): Active | inhibition [9]: Dose-dependent-effect | inhibition [10]: Dose-dependent-effect | inhibition [11]: inactive | Activity (Mus musculus [12]): Dose-dependent-effect | inhibition [13]: inactive | Activity [14]: Non-toxic | Activity (HEK293): Non-toxic | Activity (Mus musculus [15]): Active | Activity (Mus musculus [16]): Active | inhibition [17]: > 50% | inhibition [18]: inactive | inhibition [19]: Active; Compound Nearly Abolished Il-1 Beta Secretion | inhibition [20]: > 50% | IC50 [1]: 12 nM | inhibition [21]: inactive

Cc1nn(C)cc1S(=O)(=O)NC(=O)Nc1c(-c2ccc([N+](=O)[O-])cc2)ccc2c1CCC2
IC50 [1]: > 1000 nM

CC(C)(O)c1coc(S(=O)(=O)NC(=O)Nc2c(-c3cccc(OC(F)(F)F)c3)ccc3c2CCC3)c1
IC50 [1]: 357 nM

CC(C)c1cc(I)cc(C(C)C)c1NC(=O)NS(=O)(=O)c1cc(C(C)(C)O)co1
IC50 [1]: 31 nM

CN(C)Cc1ccc(S(=O)(=O)NC(=O)Nc2c(-c3ccc([N+](=O)[O-])cc3)ccc3c2CCC3)cc1
IC50 [1]: > 1000 nM

O=C(Nc1c(-c2ccc([N+](=O)[O-])cc2)ccc2c1CCC2)NS(=O)(=O)N1CCOCC1
IC50 [1]: > 1000 nM

O=C(Nc1c(-c2ccc([N+](=O)[O-])cc2)ccc2c1CCC2)NS(=O)(=O)c1cccnc1
IC50 [1]: > 1000 nM

CC(C)(O)CS(=O)(=O)NC(=O)Nc1c(-c2ccc([N+](=O)[O-])cc2)ccc2c1CCC2
IC50 [1]: > 1000 nM

O=C(Nc1c(-c2ccc([N+](=O)[O-])cc2)ccc2c1CCC2)NS(=O)(=O)c1ccccc1
IC50 [1]: 355 nM

O=C(Nc1c(-c2ccc([N+](=O)[O-])cc2)ccc2c1CCC2)NS(=O)(=O)c1cccs1
IC50 [1]: 54 nM

O=C(Nc1c(-c2ccc([N+](=O)[O-])cc2)ccc2c1CCC2)NS(=O)(=O)c1cccc(Br)n1
IC50 [1]: 212 nM

Cc1ccsc1S(=O)(=O)NC(=O)Nc1c(-c2ccc([N+](=O)[O-])cc2)ccc2c1CCC2
IC50 [1]: > 1000 nM

Cn1ccc(S(=O)(=O)NC(=O)Nc2c(-c3ccc([N+](=O)[O-])cc3)ccc3c2CCC3)n1
IC50 [1]: > 1000 nM

CCCCOc1cccc(-c2ccc3c(c2NC(=O)NS(=O)(=O)c2cc(C(C)(C)O)co2)CCC3)c1
IC50 [1]: 287 nM

Cc1cc(F)ccc1-c1ccc2c(c1NC(=O)NS(=O)(=O)c1cc(C(C)(C)O)co1)CCC2
IC50 [1]: 564 nM

COC(=O)c1csc(S(=O)(=O)NC(=O)Nc2c(-c3ccc([N+](=O)[O-])cc3)ccc3c2CCC3)c1
IC50 [1]: 334 nM

CC(C)(O)c1coc(S(=O)(=O)NC(=O)Nc2c3c(cc(Br)c2OC2CCCC2)CCC3)c1
IC50 [1]: > 1000 nM

CCCCNS(=O)(=O)c1cccc(-c2ccc3c(c2NC(=O)NS(=O)(=O)c2cc(C(C)(C)O)co2)CCC3)c1
IC50 [1]: > 1000 nM

CC(C)(O)c1coc(S(=O)(=O)NC(=O)Nc2c(-c3ccc([N+](=O)[O-])cc3)ccc3c2CCC3)c1
IC50 [1]: 6 nM

CC(C)(C)c1cc(-c2ccc3c(c2NC(=O)NS(=O)(=O)c2cc(C(C)(C)O)co2)CCC3)cc(C(C)(C)C)c1
IC50 [1]: > 1000 nM

O=C(Nc1c(-c2ccc([N+](=O)[O-])cc2)ccc2c1CCC2)NS(=O)(=O)CCO
IC50 [1]: > 1000 nM

O=C(Nc1c(-c2ccc([N+](=O)[O-])cc2)ccc2c1CCC2)NS(=O)(=O)N1CCCC1
IC50 [1]: > 1000 nM

CC(C)c1cccc(-c2ccc3c(c2NC(=O)NS(=O)(=O)c2cc(C(C)(C)O)co2)CCC3)c1
IC50 [1]: > 1000 nM

CN[C@H]1COc2c(S(=O)(=O)NC(=O)Nc3c(-c4ccc([N+](=O)[O-])cc4)ccc4c3CCC4)cnn2C1
IC50 [1]: 260 nM

COCCOc1ccc(-c2ccc3c(c2NC(=O)NS(=O)(=O)c2cc(C(C)(C)O)co2)CCC3)cc1
IC50 [1]: 244 nM

CN(C)c1cccc(-c2ccc3c(c2NC(=O)NS(=O)(=O)c2cc(C(C)(C)O)co2)CCC3)c1
IC50 [1]: > 1000 nM

CCOc1ccc2cc(-c3ccc4c(c3NC(=O)NS(=O)(=O)c3cc(C(C)(C)O)co3)CCC4)ccc2c1
IC50 [1]: 72 nM

COc1cccc(OC)c1-c1ccc2c(c1NC(=O)NS(=O)(=O)c1cc(C(C)(C)O)co1)CCC2
IC50 [1]: > 1000 nM

CCCCNC(=O)c1cccc(-c2ccc3c(c2NC(=O)NS(=O)(=O)c2cc(C(C)(C)O)co2)CCC3)c1
IC50 [1]: 84 nM

CCCCc1ccc(-c2ccc3c(c2NC(=O)NS(=O)(=O)c2cc(C(C)(C)O)co2)CCC3)cc1
IC50 [1]: > 1000 nM

Cc1ccc(S(=O)(=O)NC(=O)Nc2c(-c3ccc([N+](=O)[O-])cc3)ccc3c2CCC3)cc1
IC50 [1]: > 1000 nM

CC(=O)c1ccc(S(=O)(=O)NC(=O)Nc2c(-c3ccc([N+](=O)[O-])cc3)ccc3c2CCC3)cc1
IC50 [1]: 426 nM

CC(C)(O)c1coc(S(=O)(=O)NC(=O)Nc2c(-c3ccnc(F)c3)ccc3c2CCC3)c1
IC50 [1]: 27 nM

Nc1cccc(S(=O)(=O)NC(=O)Nc2c(-c3ccc([N+](=O)[O-])cc3)ccc3c2CCC3)c1
IC50 [1]: 403 nM

CC(C)(O)c1coc(S(=O)(=O)NC(=O)Nc2c3c(cc4c2CCC4)CCC3)c1
Activity (Mus musculus [22]): Active

Cc1cccc(-c2ccc3c(c2NC(=O)NS(=O)(=O)c2cc(C(C)(C)O)co2)CCC3)c1
IC50 [1]: 76 nM

O=C(Nc1c(-c2ccc([N+](=O)[O-])cc2)ccc2c1CCC2)NS(=O)(=O)c1cc(Br)cs1
IC50 [1]: > 1000 nM
